Test results as given in patent US6043367A, “Proactive antitumor compounds” (priority 1998, dated 2000).

Legend:
[1] = test system: CaSki human cervical carcinoma cells; assay: in vitro cytotoxicity: [3H] leucine incorporation (protein synthesis) in CaSki cells
Procedure: One way to evaluate the in vitro cytotoxic activities of a proactive compound is by incubating the tested compound with cancerous cells in serum at 37° C. for a certain period of time. After incubation, the cells can be washed and pulsed with [^3 H] leucine in leucine-free medium for another period of time. The radioactivity of trichloroacetic acid-precipitated protein, an indication of the level of protein synthesis of the cell, can then be measured.
CaSki human cervical carcinoma cells were plated overnight in 96-well microtiter plates at 18,000 cells/well. Serial dilution of (i) compound 17 alone, (ii) compound 22 with β-glucuronidase, and (iii) compound 22 alone, in medium containing 5% fetal calf serum were added to cells for 96 hours at 37° C. Cells were subsequently washed once with sterile PBS, and then pulsed for 2 hours with [^3 H] leucine (1 μCi/well) in leucine-free medium. The radioactivity of trichloroacetic acid-precipitated protein was measured in a Beckman LS 6000 series liquid scintillation counter.

[2] = target: E. coli β-glucuronidase (Escherichia coli, UniProt P05804); assay: cleavage of compound 22 by β-glucuronidase in βG buffer, HPLC; assay type: biochemical; conditions: E. coli β-glucuronidase 1 μg/ml, 37° C.
Procedure: The proactive compound can also be tested as to its ability to be cleaved by β-glucuronidase. Specifically, the enzyme and the tested compound are both added to […]. Aliquots are then taken out and evaluated in a similar fashion as described above.
(§1) 20 μl samples made from compounds 22 and 17 (moiety (3) of compound 22) were injected onto a Hypersil column (RP-18, 4.6×250 mm, 5 μm) with 45% methanol and 25 mM phosphate buffer (pH 2.5) as mobile phase at a flow rate of 1 ml/min. Eluted components were detected by fluorescence (excitation: 397 nm, emission: 482 nm) on a Gilson fluorometer. Peak areas were analyzed with Beckman system Gold software. The retention times for compound 17 and compound 22 were 9.5 and 15.8 minutes, respectively.
500 μl of compound 22 (116 μM) in βG buffer (100 mM acetic acid, 50 mM bis-tris, 50 mM triethanolamine, pH 7.0) was incubated with E. coli β-glucuronidase (1 μg/ml) at 37° C. Aliquots (30 μl) withdrawn after 0, 1, 2, 3, and 5 minutes was mixed with 300 μl of ethyl acetate, and acidified by addition of 12 mM phosphoric acid (270 μl). […] The recovery of compounds 22 and 17 from βG buffer […] were about 90% and 80%, respectively. Samples were suspended in 150 μl of mobile phase (45% methanol/25 mM phosphate buffer, pH 2.5) and analyzed by HPLC.

[3] = stability of the proactive compound in 95% human plasma at 37° C., HPLC; assay type: in vitro ADME; conditions: 145 μM (100 μg/ml), CO2 atmosphere, up to 48 hours, as compared with compound 23
Procedure: The stability of the proactive compound in serum can be evaluated by using high performance liquid chromatography (HPLC) analysis. […] Aliquots are taken out from the serum solution after every pre-designed period of time, e.g., every other hour. The proteins present in serum are precipitated, acidified, and dried under reduced pressure. The dried compound is dissolved in the HPLC buffer and then analyzed by HPLC.
as §1

E. coli β-glucuronidase, sequence (P05804 whole entry): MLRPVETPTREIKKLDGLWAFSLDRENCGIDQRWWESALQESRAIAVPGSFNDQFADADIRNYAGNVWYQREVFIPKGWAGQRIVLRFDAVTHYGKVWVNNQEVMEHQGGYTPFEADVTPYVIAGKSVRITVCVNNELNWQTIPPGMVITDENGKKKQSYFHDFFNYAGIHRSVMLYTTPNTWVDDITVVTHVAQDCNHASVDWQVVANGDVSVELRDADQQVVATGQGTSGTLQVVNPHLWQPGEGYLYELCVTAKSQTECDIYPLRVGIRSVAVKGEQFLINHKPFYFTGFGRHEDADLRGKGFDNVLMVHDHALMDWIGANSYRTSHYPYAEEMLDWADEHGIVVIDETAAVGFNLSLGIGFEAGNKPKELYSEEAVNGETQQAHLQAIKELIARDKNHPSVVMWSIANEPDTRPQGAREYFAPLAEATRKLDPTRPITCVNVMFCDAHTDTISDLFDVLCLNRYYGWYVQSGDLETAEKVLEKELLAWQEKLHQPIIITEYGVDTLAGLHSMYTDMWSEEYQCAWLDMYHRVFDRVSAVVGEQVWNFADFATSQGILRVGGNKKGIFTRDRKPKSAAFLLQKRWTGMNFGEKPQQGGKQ

Row | SMILES | decrease of level of protein synthesis ([1]; compound alone, 100 nM, 96 hours, 37° C., 5% fetal calf serum) [fold] | absorbance of compound 17 released from compound 22 by β-glucuronidase ([2]; 0-5 minutes, compound 22 116 μM, βG buffer pH 7.0) | half life in serum [3] | cytotoxicity relative to compound 17 ([1]; compound alone (no β-glucuronidase)) | change of level of protein synthesis ([1]; compound alone (no β-glucuronidase), 100 nM, 96 hours, 37° C., 5% fetal calf serum) | cytotoxicity relative to compound 17 ([1]; upon activation by glucuronidase) | decrease of level of protein synthesis ([1]; with β-glucuronidase, 100 nM, 96 hours, 37° C., 5% fetal calf serum) [fold] | conversion into moiety (3) upon activation by glucuronidase [2] | absorbance of compound 22 after incubation with β-glucuronidase ([2]; after 3 minutes, compound 22 116 μM, βG buffer pH 7.0)
1 | CC[C@@]1(O)C(=O)OCc2c1cc1n(c2=O)Cc2cc3c(N)cccc3nc2-1 [Compound 17, reference compound] | ~4 | increased in the first three minutes and reached a steady level after the third minute | – | – | – | – | – | – | –
2 | CC[C@@]1(O)C(=O)OCc2c1cc1n(c2=O)Cc2cc3c(NC(=O)OCc4ccc(O[C@@H]5O[C@H](C(=O)O)[C@@H](O)[C@H](O)[C@H]5O)cc4)cccc3nc2-1 [Compound 22] | – | – | surprisingly long half life in serum | much less cytotoxic than compound 17 | did not change | almost as cytotoxic as compound 17 | ~4 | converted into its moiety (3), i.e., compound 17 | almost undetectable
